Earlier results as cited in patent US20030194514A1 (priority 2002, published 2003).

Columns and labels:
[1] = diluent level of 15%; cited from earlier work
[2] = per Brit. 1,132,417; cited from earlier work
[3] = especially at a dilution level of 20-30%; cited from earlier work

Compound | Judgement as stabilizer for propargyl bromide by impact tests [1] | Effectiveness of the solvent in stabilizing propargyl bromide [2] | Judgement as stabilizer in confinement tests [3]
c1ccccc1 [benzene] | poor stabilizers | – | –
ClC(Cl)Cl [chloroform] | poor stabilizers | ineffective | –
CCOCC [diethyl ether] | appeared promising | – | –
CC(C)OC(C)C [diisopropyl ether] | appeared promising | – | –
C1COCCO1 [dioxane] | – | effective | –
CCO [ethanol] | – | effective | –
NC=O [formamide] | poor stabilizers | ineffective | –
CCCCCC [hexane] | poor stabilizers | ineffective | –
C1CCOC1 [tetrahydrofuran] | – | effective | –
Cc1ccccc1 [toluene] | – | – | material of choice
xylene | – | effective | –
